“And” between values parts separate entries of the source, which are not always exact repeats. Equal values may be shown once.
Tests used:
[1] = tested on: oxazolone-induced topical inflammatory model in BALB/c mice; experiment: Oxazolone-induced topical inflammatory model (ear swelling); assay type: in vivo
Protocol: To this end, we utilized two mouse models of allergic contact dermatitis, which are schematically illustrated in FIG. 12. […] Afterwards, the difference in the thickness of each of the two ears was compared to measure the extent of swelling (ie. inflammation).
As a further test, vehicle or the indicated compounds were administered topically in 40 μl doses 30 minutes before and 15 minutes after a second challenge (25 μl/ear of 1% oxazolone in acetone) (n=6). Ear thickness was measured 24 hours after the second challenge with a Dyer model micrometer gauge.

[2] = tested on: arachidonic acid-induced topical inflammatory model in BALE/c mice; experiment: Arachidonic acid-induced topical inflammatory model (ear swelling); assay type: in vivo
[3] = target: TNFα converting enzyme (TACE) (Homo sapiens, UniProt P78536); experiment: Purified protease assay, fluorescence (TACE); assay type: biochemical
TNFα converting enzyme (TACE), sequence (P78536 215-824, species assumed): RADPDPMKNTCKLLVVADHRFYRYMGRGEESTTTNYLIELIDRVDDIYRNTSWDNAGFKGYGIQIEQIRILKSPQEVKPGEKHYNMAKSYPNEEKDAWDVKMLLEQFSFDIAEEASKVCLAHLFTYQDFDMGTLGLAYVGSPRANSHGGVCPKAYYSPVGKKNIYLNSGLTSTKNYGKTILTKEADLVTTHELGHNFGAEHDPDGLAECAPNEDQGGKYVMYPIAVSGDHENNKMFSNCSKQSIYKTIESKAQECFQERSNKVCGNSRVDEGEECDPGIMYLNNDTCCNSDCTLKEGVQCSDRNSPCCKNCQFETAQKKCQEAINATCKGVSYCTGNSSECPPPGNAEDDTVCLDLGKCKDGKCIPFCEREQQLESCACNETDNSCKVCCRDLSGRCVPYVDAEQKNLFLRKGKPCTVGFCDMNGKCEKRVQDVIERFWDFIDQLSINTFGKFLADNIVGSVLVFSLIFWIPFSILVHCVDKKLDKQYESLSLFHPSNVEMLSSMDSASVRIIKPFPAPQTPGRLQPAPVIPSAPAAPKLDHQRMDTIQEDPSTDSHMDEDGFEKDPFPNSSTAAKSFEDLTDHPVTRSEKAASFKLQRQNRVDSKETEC
Source text: (§1) . Product was quantified by fluorescence (n=2) (FIG. 19). Ac-YVAD-CHO and GM-6001 served as positive controls and were used at empirically determined IC50 concentrations.

Caspase-1 = target: T1, Caspase-1 (Homo sapiens, UniProt P29466); experiment: Purified protease assay, fluorescence (Caspase-1); assay type: biochemical
T1 sequence (P29466 120-297 limits assumed): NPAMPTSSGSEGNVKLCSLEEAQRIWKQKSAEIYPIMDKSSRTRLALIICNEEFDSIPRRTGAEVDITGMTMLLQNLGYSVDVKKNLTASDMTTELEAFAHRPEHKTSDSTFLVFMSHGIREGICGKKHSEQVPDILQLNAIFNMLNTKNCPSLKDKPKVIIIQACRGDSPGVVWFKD
T1 sequence (P29466 317-404 limits assumed): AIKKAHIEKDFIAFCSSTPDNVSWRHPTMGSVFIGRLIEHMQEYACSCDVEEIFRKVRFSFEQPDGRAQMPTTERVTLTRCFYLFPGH
Source text: as §1

primary human monocytes = experiment: IL-1β secretion and IL-1β species in LPS-induced primary human monocytes (ELISA, western blotting); assay type: cell-based
Protocol: Culture supernatants were analyzed for cytokine levels by ELISA (FIG. 16). […] Cell lysates were also analyzed for levels of IL-1β species by western blotting (FIG. 20).
Cells were treated with 1 mM ATP for 10 minutes. Culture supernatants were analyzed for IL-1β by ELISA (FIG. 18).

COc1ccc2c(c1)c(CC(=O)O)c(C)n2C(=O)c1ccc(Cl)cc1 [Indomethacin, reference compound]
Ear Thickness Net ([1]; 0.3 mg/ear × 2, topical): 9.7 ± 1.0 0.01 mm
% Inhibition ([1]; 0.3 mg/ear × 2, topical, relative to vehicle-treated control, ≧30% considered significant): (40) %
% Inhibition ([2]; TOP, 3 mg/ear × 2): (62) %
Ear thickness L. Ear, mean (X) ([2]; TOP, 3 mg/ear × 2): 20.2 ×0.01 mm
Ear thickness Net, mean (X) ([2]; TOP, 3 mg/ear × 2): 5.5 ×0.01 mm
Ear thickness R. Ear, mean (X) ([2]; TOP, 3 mg/ear × 2): 25.7 ×0.01 mm
Ear thickness L. Ear, individual animals ([2]; TOP, 3 mg/ear × 2, N 1-6): 19 ×0.01 mm and 21 ×0.01 mm (2×) and 20 ×0.01 mm (3×)
Ear thickness Net, individual animals ([2]; TOP, 3 mg/ear × 2, N 1-6): 7 ×0.01 mm and 4 ×0.01 mm and 6 ×0.01 mm (2×) and 5 ×0.01 mm (2×)
Ear thickness R. Ear, individual animals ([2]; TOP, 3 mg/ear × 2, N 1-6): 26 ×0.01 mm (4×) and 25 ×0.01 mm (2×)

CNC(=O)[C@H](Cc1c[nH]c2ccccc12)NC(=O)[C@@H](CC(=O)NO)CC(C)C [GM-6001, reference compound]
IC50 [3]: 60 nM

COc1ccc(Cn2ccc3ccc(C(=O)NO)cc32)cc1 [Compound 23, 1-(4-methoxy-phenylmethyl)-1H-indole-6-carboxylic acid hydroxyamide]
Ear Thickness Net ([1]; 1 mg/ear × 2, topical): 12.5 ± 1.8 0.01 mm
Ear Thickness Net ([1]; 3 mg/ear × 2, topical): 7.3 ± 0.3 0.01 mm
direct inhibition of Caspase-1 protease (Caspase-1; 10 μM): does not Directly Inhibit
direct inhibition of TACE protease ([3]; 10 μM): does not Directly Inhibit
arachidonic acid-induced inflammation (in words) ([2]; 1 mg): reduced arachidonic acid-induced inflammation
Ear thickness L. Ear, mean (X) ([2]; TOP, 1 mg/ear × 2): 20.0 ×0.01 mm
Ear thickness Net, mean (X) ([2]; TOP, 1 mg/ear × 2): 9.7 ×0.01 mm
Ear thickness R. Ear, mean (X) ([2]; TOP, 1 mg/ear × 2): 29.7 ×0.01 mm
Ear thickness L. Ear, individual animals ([2]; TOP, 1 mg/ear × 2, N 1-6): 20 ×0.01 mm (4×) and 21 ×0.01 mm and 19 ×0.01 mm
Ear thickness Net, individual animals ([2]; TOP, 1 mg/ear × 2, N 1-6): 9 ×0.01 mm (3×) and 11 ×0.01 mm and 8 ×0.01 mm and 12 ×0.01 mm
Ear thickness R. Ear, individual animals ([2]; TOP, 1 mg/ear × 2, N 1-6): 29 ×0.01 mm (2×) and 32 ×0.01 mm (2×) and 28 ×0.01 mm (2×)
Ear thickness L. Ear, mean (X) ([2]; TOP, 3 mg/ear × 2): 20.5 ×0.01 mm
Ear thickness Net, mean (X) ([2]; TOP, 3 mg/ear × 2): 10.3 ×0.01 mm
Ear thickness R. Ear, mean (X) ([2]; TOP, 3 mg/ear × 2): 30.8 ×0.01 mm
Ear thickness L. Ear, individual animals ([2]; TOP, 3 mg/ear × 2, N 1-6): 21 ×0.01 mm (4×) and 19 ×0.01 mm and 20 ×0.01 mm
Ear thickness Net, individual animals ([2]; TOP, 3 mg/ear × 2, N 1-6): 6 ×0.01 mm (2×) and 11 ×0.01 mm and 16 ×0.01 mm (2×) and 7 ×0.01 mm
Ear thickness R. Ear, individual animals ([2]; TOP, 3 mg/ear × 2, N 1-6): 27 ×0.01 mm (2×) and 32 ×0.01 mm and 35 ×0.01 mm and 36 ×0.01 mm and 28 ×0.01 mm
pro-IL-1β levels in cell lysates, of control levels (densitometry) (primary human monocytes; 2 μM lane): 153%
pro-IL-1β levels in cell lysates, of control levels (densitometry) (primary human monocytes; 10 μM lane): 142%

CC(=O)N[C@@H](Cc1ccc(O)cc1)C(=O)N[C@H](C(=O)N[C@@H](C)C(=O)N[C@H](C=O)CC(=O)O)C(C)C [Ac-YVAD-CHO, reference compound]
IC50 (Caspase-1; positive control, read-out: empirically determined IC50 concentration, Caspase-1): 20 nM
